The values below come from patent US8722714B2, “Oxazolidine derivatives as NMDA antagonists” (The Honk Kong University of Science and Technology, priority 2008, dated 2014).

Experiment [1] deals with NMDA receptor. In words: Whole-cell patch clamp of NMDA-induced current in hippocampal neurons. Format: cell-based, rat. Conditions: for pooled NMDA current responses (normalized peak and plateau currents) / recovery of NMDA-induced current after compound was washed out: compound 500 uM co-applied with NMDA 200 uM; for pooled NMDA current responses (normalized peak and plateau currents): vs DMSO, n=6; for recovery of NMDA-induced current after compound was washed out: single hippocampal neuron. As to the method:
Hippocampal neurons were prepared from embryonic day 18 Sprague-Dawley rats. After the hippocampus had been removed from the brain, isolated cells were plated onto Poly d-Lysine (PDL) (P0899, Sigma)-coated 35 mm dishes (153066, NUNC) at a density of 3×10^5 cell per plate using Neurobasal Medium (NB) (21103-049, Gibco) with B27 supplement (17504-044, Gibco), penicillin/streptomycin (15140, Gibco) and 1 mM L-glutamine (25030, Gibco). The cell culture was incubated at 37° C. in a humidified atmosphere of 5% CO2 in air. Half of the medium was changed with NB, B27 and 50 μM L-glutamine every 2 to 3 days. On day 12 in vitro (12 DIV), whole-cell patch clamp was performed. The internal solution contained 120 mM cesium chloride, 20 mM tetraethylammonium chloride, 2 mM magnesium chloride, 1 mM calcium chloride and 10 mM HEPES (pH 7.2). The external solution contained 137 mM sodium chloride, 1 mM sodium bicarbonate, 0.34 mM sodium phosphate dibasic, 5.37 mM potassium chloride, 0.44 mM potassium phosphate monobasic, 2.5 mM HEPES (pH 7.4) and 22.2 mM glucose. Samples mixed with 50 μM NMDA (M3262, Sigma) were arranged in linear array of up to 8 individual controlled pipes (List Medical, Germany) which were connected to solution reservoirs. Memantine (10 μM, M9292, Sigma) was used as a positive control. Pipettes were fire-polished to produce a pipette resistance of 3-5 MΩ. Holding potential of patched cells was kept at −80 mV and currents were recorded using Axopatch-200B amplifier (Axon Instruments, USA). Tetrodotoxin (5 μM) and bicuculline methiodide (20 μM) (0109, Tocris) were present in the bath solution to block synaptic transmission mediated by voltage-gated sodium channels and […], respectively. Data was analyzed by pClamp9 software and percentage of inhibition on NMDA-induced current was represented in comparison to solvent control.
The NMDA receptor is a gated ion channel, which allows inflow of current during a nerve impulse. Antagonists to the receptor would prevent the inflow of current.
In FIG. 1A, hippocampal neurons from embryonic day 18 rats were isolated, trypsinized, plated onto 35-mm plates at a density of 3×10^4 cells/plate and cultured in Neurobasal medium (NB) supplemented with B27 nutrient. Rat hippocampal neurons (10-14 DIV) were treated with NMDA (50 μM) in the absence or presence of the compound LC-02 (10 μg/mL). Data is presented as % of NMDA-induced current. DMSO is the solvent control.
In FIG. 1B, NMDA antagonistic effect of LC-02 on current responses of a single hippocampal neuron. NMDA (200 uM) was applied for 2.5 sec every 30 sec but these inter-response intervals have been deleted from the above figure for a better resolution of the kinetics of individual responses (blank space in trace). LC-02 (500 uM) was co-applied with NMDA.
In FIG. 1C, effects of LC-02 on pooled NMDA current responses. Normalized peak and plateau currents are shown in the absence (DMSO) and presence of LC-02.
In FIG. 8, (a) NMDA antagonistic effect of LC-06 on current responses of a single hippocampal neuron. NMDA (200 uM) was applied for 2.5 sec every 30 sec but these inter-response intervals have been deleted from the above figure for a better resolution of the kinetics of individual responses (blank space in trace). LC-06 (500 uM) was co-applied with NMDA. […] (b) Effects of LC-06 on pooled NMDA current responses. Normalized peak and plateau currents are shown in the absence (DMSO) and presence of LC-06.
In FIG. 9, (a) NMDA antagonistic effect of LC-24 on current responses of a single hippocampal neuron. NMDA (200 uM) was applied for 2.5 sec every 30 sec but these inter-response intervals have been deleted from the above figure for a better resolution of the kinetics of individual responses (blank space in trace). LC-24 (500 uM) was co-applied with NMDA. […] (b) Effects of LC-24 on pooled NMDA current responses. Normalized peak and plateau currents are shown in the absence (DMSO) and presence of LC-24. […]
A general note: Patch clamp records ionic current or voltage across a cell membrane.

Experiment [2] relates to rat primary cortical neurons. The experiment can be described thus: Immunocytochemical analysis of neurons after NMDA insult. It is filed as cell-based. Conditions: compound 10 μg/ml; beta-tubulin type III and DAPI stain. As to the method: Primary cortical and hippocampal neurons were prepared from embryonic day 18 (E18) Sprague-Dawley rats. Neurons were plated on 35-mm dishes (NUNC) at a density of 1×10^6 cells per plate using Neurobasal medium (Invitrogen) supplemented with 2% B27 (Invitrogen). Neurons at 11-12 days in vitro (DIV) were subjected to treatment with the test compounds. Neurons were pretreated with the test compound for 2 hours prior to NMDA treatment. 0.1 μM (+)-MK-801 Hydrogen Maleate (Sigma) was added as a positive control. Briefly, the neurons were rinsed with Locke's solution (5 mM potassium chloride, 128 mM sodium chloride, 2.7 mM calcium chloride, 1 mM di-sodium hydrogen orthophosphate, 5 mM HEPES and 10 mM glucose in Milli-Q water) without Mg^2+, and incubated with addition of glycine (10 μM) for 15 minutes. After the incubation, the neurons were co-treated with the test compound (dissolved in Locke's plus glycine solution) and NMDA (20 μM; Sigma) for 20 minutes. Neurons were rinsed with Locke's plus Mg^2+ and replaced with fresh growth medium. […] Neurons were then analyzed by a fluorescence microscope using a 40× objective (DMRA; Leica). […]
LC-02 (10 μg/mL) protects embryonic rat primary cortical neurons against NMDA excitotoxicity. Neurites were immunostained with beta-tubulin type III antibody and detected with FITC-conjugated antibody. […]

Turning to `CC[C@H]1N[C@@H](CC(C)C)C(CC)(CC)O1` [LC-02], the “NMDA induced current in hippocampal neurons” value in experiment [1] (compound 10 μg/mL with NMDA 50 μM, rat hippocampal neurons 10-14 DIV) is listed as “decreases in NMDA induced current”. In experiment [1], the “pooled NMDA current responses (normalized peak and plateau currents)” value is listed as “significantly inhibits NMDA-induced current”; the “recovery of NMDA-induced current after compound was washed out” value is recorded as “Partial recovery of NMDA-induced current”. In experiment [2], the “protection against NMDA excitotoxicity and apoptosis (immunostaining)” value was “protected the cells from excitotoxicity and the resulting apoptosis at a level similar to control cells”.
Turning to `CCCC1(CCC)O[C@@H](CC)N[C@H]1CC(C)C` [LC-06], in experiment [1], the “pooled NMDA current responses (normalized peak and plateau currents)” value is “significantly inhibits NMDA-induced current”; the “recovery of NMDA-induced current after compound was washed out” value is reported as “Partial recovery of NMDA-induced current”.
On the same counts, the results for `CC[C@H]1N[C@@H](Cc2ccccc2)C(CC)(CC)O1` [LC-24] are “significantly inhibits NMDA-induced current” and “Partial recovery of NMDA-induced current”.
